Source: patent US6113896A, “Pharmaceutical compositions containing ecotin and homologs thereof” (priority 1994, dated 2000)
Where “and” joins values, the source holds several entries; their conditions need not be identical. Identical values can stand only once. Entries after “also recorded” stand apart in the source; their conditions may differ.

Experiments:
[1] = system: TF·FVIIa; test: Specificity assay, TF·FVIIa; type: biochemical, human; conditions: for Percent Activity of TF/Factor VIIa: 100 nM inhibitor, ~1 h, 12.0 nM enzyme
Method: (§1) Specificity Assays The following assays were used to test the specificity of ecotin and the M84K and M84R mutants against various proteases. Ecotin, M84K, M84R (100 nM each), or a control blank were incubated at room temperature for ~1 h with each enzyme. The enzymes tested (enzyme concentration, buffer, substrate) were FXa (1.2 nM, Buffer A, 0.7 mM Spectrozyme fXa), thrombin (3.7 nM, Buffer A, 0.7 mM S2366), TF.cndot.FVIIa (12.0 nM, Buffer B, 0.7 mM S2366), FXIa (1.2 nM, Buffer A containing 1 mg/ml BSA, 0.7 mM S2366), activated protein C (4.3 nM, Buffer A, 0.7 mM S2366), plasmin (15 nM, Buffer A, 1 mM S2251), single chain t-PA (15 nM, Buffer A, 2.5 mM S2288), Factor XIIa (10 nM, Buffer A, 0.5 mM S2302, plasma kallikrein (10 nM, Buffer A, 0.5 mM S2302), HLE (17 nM, 0.1 M Tris, pH 7.5, 0.5 M NaCl and 0.005 % Triton X-100, 0.42 mM MeOSuc-AAPV-pNA) (SEQ ID NO:9), bovine trypsin (10 nM, Buffer A, 0.25 mM Spectrozyme fXa), and bovine chymotrypsin (10 nM, Buffer A, 1 mM Suc-AAPF-pNA) (SEQ ID NO:10). Buffer A contains 50 mM Tris, pH 7.5, 100 mM NaCl, 2 mM CaCl2 and 0.005% Triton X-100. Buffer B contains 50 mM Tris, pH 7.5, 100 mM NaCl, 10 mM CaCl2, 0.5% BSA, 60 nM TF1-243,and 1 mM CHAPS. The initial change in absorbance at 405 nm was monitored after addition of substrate. Controls lacking inhibitor and/or enzyme were also assayed to assess the uninhibited rates and the background substrate hydrolysis rates, respectively.

[2] = system: HLE; test: Specificity assay, HLE; type: biochemical, human; conditions: for Percent Activity of HLE: 100 nM inhibitor, ~1 h, 17 nM enzyme
Method: as §1

[3] = system: single chain t-PA; test: Specificity assay, single chain t-PA; type: biochemical, human; conditions: for Percent Activity of t-PA: 100 nM inhibitor, ~1 h, 15 nM enzyme
Method: as §1

[4] = system: FXa; test: Specificity assay, FXa; type: biochemical, human; conditions: 100 nM inhibitor, ~1 h, 1.2 nM enzyme
Method: as §1

[5] = system: plasma kallikrein; test: Specificity assay, plasma kallikrein; type: biochemical, human; conditions: for Percent Activity of Kallikrein: 100 nM inhibitor, ~1 h, 10 nM enzyme
Method: as §1

[6] = system: FXIa; test: Specificity assay, FXIa; type: biochemical, human; conditions: for Percent Activity of Factor XIa: 100 nM inhibitor, ~1 h, 1.2 nM enzyme
Method: as §1

[7] = system: thrombin; test: Specificity assay, thrombin; type: biochemical, human; conditions: for Percent Activity of Thrombin: 100 nM inhibitor, ~1 h, 3.7 nM enzyme
Method: as §1

[8] = system: plasmin; test: Specificity assay, plasmin; type: biochemical, human; conditions: for Percent Activity of Plasmin: 100 nM inhibitor, ~1 h, 15 nM enzyme
Method: as §1

[9] = target: human FXa; test: Equilibrium inhibition constant with Factor Xa (tight-binding analysis); type: biochemical; conditions: for inhibition of FXa, in words: compared with wild type
Method: Determination of Equilibrium Inhibition Constants Apparent Ki values (Ki *) for the inhibition of the enzymes tested by ecotin and mutants were measured as follows. All reactions were performed at 25° C. Stock solutions of trypsin were quantitated by active site burst titration with MUGB as previously described (Jameson, G. W. et al., Biochem. J. 131:107-117 [1973]) using a Fluoroskan II plate reader at excitation wavelength of 355 nm and emission wavelength of 460 nm. Data was collected on a Macintosh SE20 using either Delta Soft II Fl v3.31 software (BioMetallics). Active site titrated trypsin was then used to quantitate ecotin active sites using BAPA as the substrate; a stoichiometry of 1:1 was assumed (Chung, C. H. et al., supra). Factor Xa, Factor XIIa, plasma kallikrein, or HLE were then quantitated by active site titration using ecotin as a standard, again assuming 1:1 stoichiometry. In addition, the concentration of HLE was quantitated by methods previously described using a calibrated stock of α1 -proteinase inhibitor to titrate the HLE active sites (Beatty, K. et al., J. Biol. Chem. 255:3931-3934 [1980]); the same HLE active site concentration was determined using both ecotin and α1 -proteinase inhibitor. The substate for FXa was Spectrozyme fXa (0.5 mM); the substrate for FXIIa (0.5 mM) and plasma kallikrein was S2302 (0.5 mM); the substrate for HLE was MeOSuc-Ala-Ala-Pro-Val-pNA (0.4 mM). There was good agreement upon comparison of the protein concentrations determined by amino acid analysis, Bradford analysis (Bradford, M. M. Anal. Biochem. 72:248-254 (1976) or active site titrations for trypsin, ecotin, FXa, FXIIa, plasma kallikrein, and HLE.
Therefore, apparent equilibrium dissociation values (Ki *) were determined using methods derived for tight-binding inhibitors (Morrison, J. F. Biochim. Biophys. Acta 185:269-286 [1969]), (Bieth, J. in Proteinase Inhibitors (Fritz, H., Tschesche, H., Greene, L. J. and Truscheit, E., Ed.) pp 463-469, Springer-Verlag, New York [1974]). Data were fit by nonlinear regression analysis to equation 1 and values for Ki * were determined. [formula] where α is the fractional activity (steady-state inhibited rate divided by the uninhibited rate), [Eo ] is the total enzyme concentration, and [Io ] is the total ecotin concentration. Since the inhibitor and substrate compete for the same site, the true Ki value is related to Ki^* by the expression Ki =Ki */(1+[S]/Km), where Km is the Michaelis constant for the substrate, and [S] is the substrate concentration.
a. […] Following a 1 hour incubation at room temperature to reach equilibration of the enzyme.cndot.inhibitor complex, 20 μl of 5 mM Spectrozyme fXa was added, and the steady-state rate of product formation measured by monitoring the change in absorbance at 405 nm. The Km for Spectrozyme fXa with FXa under these conditions was determined to be 0.23 mM by linear regression analysis of Lineweaver-Burke plots.

[10] = text statement, listed as ecotin

Ecotin: E. coli periplasmic protein having the 142 amino acid residue sequence reported by McGrath et al.; recombinant, P1 Met84
Percent Activity of TF/Factor VIIa [1]: 99% | inhibition of TF·FVIIa, in words ([1]; text statement): did not effectively inhibit | inhibition of TF·FVIIa, in words [1, 10]: little or no inhibition; also recorded: No inhibition; also recorded: does not inhibit | Percent Activity of HLE [2]: 0% | inhibition of HLE, in words ([2]; text statement): potently inhibited | Percent Activity of t-PA [3]: 100% | inhibition of t-PA, in words ([3]; text statement): did not effectively inhibit | inhibition of t-PA, in words [3, 10]: little or no inhibition; also recorded: No inhibition | Percent Activity of Factor Xa [4]: 0% | Percent Activity of Kallikrein [5]: 0% | inhibition of plasma kallikrein, in words ([5]; text statement): potently inhibited | Percent Activity of Factor XIa [6]: 79% | inhibition of FXIa, in words ([6]; text statement): did not effectively inhibit | inhibition of FXIa, in words [6, 10]: little or no inhibition | Percent Activity of Thrombin [7]: 98% | inhibition of thrombin, in words ([7]; text statement): did not effectively inhibit | inhibition of thrombin, in words [7, 10]: little or no inhibition | Percent Activity of Plasmin [8]: 100% | inhibition of plasmin, in words ([8]; text statement): did not effectively inhibit | inhibition of plasmin, in words [8, 10]: little or no inhibition | Ki ([9]; apparent value, 0.5 mM Spectrozyme fXa, read-out: Ki* (apparent equilibrium dissociation value) with FXa): 0.054 nM and 0.047 nM

M84R
Percent Activity of TF/Factor VIIa [1]: 87% | inhibition of TF·FVIIa, in words ([1]; listed as P1 Arg mutant): did not inhibit | inhibition of TF·FVIIa, in words ([1]; text statement): Neither ecotin, the M84R or M84K mutants inhibited | Percent Activity of HLE [2]: 88% | inhibition of HLE, in words ([2]; listed as P1 Arg mutant): did not inhibit | inhibition of HLE, in words ([2]; text statement): effectively diminished inhibition; also recorded: no longer inhibited | Percent Activity of t-PA [3]: 100% | inhibition of t-PA, in words ([3]; listed as P1 Arg mutant): did not inhibit | inhibition of t-PA, in words ([3]; text statement): Neither ecotin, the M84R or M84K mutants inhibited | Percent Activity of Factor Xa [4]: 1% | Percent Activity of Kallikrein [5]: 1% | inhibition of plasma kallikrein, in words ([5]; listed as P1 Arg mutant): significantly inhibited | inhibition of plasma kallikrein, in words ([5]; text statement): still potently inhibited | Percent Activity of Factor XIa [6]: 5% | inhibition of FXIa, in words ([6]; listed as P1 Arg mutant): significantly inhibited | inhibition of FXIa, in words ([6]; text statement): significant inhibition | Percent Activity of Thrombin [7]: 4% | inhibition of thrombin, in words ([7]; listed as P1 Arg mutant): significantly inhibited | inhibition of thrombin, in words ([7]; text statement): significant inhibition | Percent Activity of Plasmin [8]: 10% | inhibition of plasmin, in words ([8]; listed as P1 Arg mutant): significantly inhibited | inhibition of plasmin, in words ([8]; text statement): significant inhibition | inhibition of FXa, in words [9]: slightly more potent as FXa inhibitors; also recorded: slightly more potent than the wild type inhibitor

M84K
Percent Activity of TF/Factor VIIa [1]: 92% | inhibition of TF·FVIIa, in words ([1]; listed as P1 Lys mutant): did not inhibit | inhibition of TF·FVIIa, in words ([1]; text statement): Neither ecotin, the M84R or M84K mutants inhibited | Percent Activity of HLE [2]: 85% | inhibition of HLE, in words ([2]; listed as P1 Lys mutant): did not inhibit | inhibition of HLE, in words ([2]; text statement): effectively diminished inhibition; also recorded: no longer inhibited | Percent Activity of t-PA [3]: 100% | inhibition of t-PA, in words ([3]; listed as P1 Lys mutant): did not inhibit | inhibition of t-PA, in words ([3]; text statement): Neither ecotin, the M84R or M84K mutants inhibited | Percent Activity of Factor Xa [4]: 2% | Percent Activity of Kallikrein [5]: 2% | inhibition of plasma kallikrein, in words ([5]; listed as P1 Lys mutant): significantly inhibited | inhibition of plasma kallikrein, in words ([5]; text statement): still potently inhibited | Percent Activity of Factor XIa [6]: 12% | inhibition of FXIa, in words ([6]; listed as P1 Lys mutant): significantly inhibited | inhibition of FXIa, in words ([6]; text statement): significant inhibition | Percent Activity of Thrombin [7]: 16% | inhibition of thrombin, in words ([7]; listed as P1 Lys mutant): significantly inhibited | inhibition of thrombin, in words ([7]; text statement): significant inhibition | Percent Activity of Plasmin [8]: 9% | inhibition of plasmin, in words ([8]; listed as P1 Lys mutant): significantly inhibited | inhibition of plasmin, in words ([8]; text statement): significant inhibition | inhibition of FXa, in words [9]: slightly more potent as FXa inhibitors; also recorded: slightly more potent than the wild type inhibitor
